As usually defined, the IC50 is the point on the concentration scale where inhibition reaches its midpoint. Lower therefore signals greater potency in that assay.

T1 sequence (Q9NZQ7 19-238 limits assumed): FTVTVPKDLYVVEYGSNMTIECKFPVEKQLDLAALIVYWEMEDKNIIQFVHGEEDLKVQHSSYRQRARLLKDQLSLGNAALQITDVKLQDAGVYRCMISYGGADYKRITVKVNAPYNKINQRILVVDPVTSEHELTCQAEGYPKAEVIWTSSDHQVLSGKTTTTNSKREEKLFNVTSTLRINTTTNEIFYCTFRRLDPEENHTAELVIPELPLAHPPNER

The test concerns the target T1, PD-1/PD-L1 (Homo sapiens, UniProt Q9NZQ7).
T1 construct: purchased CisBio
Briefly: PD1-PDL1 HTRF assay. The note with it: PD-1/PD-L1 homogenous time-resolved fluorescence (HTRF) binding assay; Tag1-PDL1 5 nM, Tag2-PD1 50 nM. In outline:
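Compound (8 concentrations) was preincubated 15 min at room temperature with Tag1-PD-L1 and Tag2-PD-1, added as 5 nM and 50 nM solutions. Eu-labelled anti-Tag1 and XL665-labelled anti-Tag2 were then added for 1 h, and the 665/620 nm ratio (×10^4; excitation 320 nm) was fitted to the Hill equation for IC50.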
A general note: TR-FRET usually uses a lanthanide donor and a delayed reading to cut background.
`Cc1c(-c2ccc(CNCCO)cc2)cccc1-c1cccc(-c2ccn3nc(CNC[C@@H]4CCC(=O)N4)nc3c2)c1C` [Example 102, (S)-5-((((7-(4″-(((2-hydroxyethyl)amino)methyl)-2,2′-dimethyl-[1,1′:3′,1″-terphenyl]-3-yl)-[1,2,4]triazolo[1,5-a]pyridin-2-yl)methyl)amino)methyl) pyrrolidin-2-one]: the IC50 lay in the range of 10 to 100 nM.
With `Cc1c(NC(=O)c2ccc(CNCCO)cc2)cccc1-c1cccc(-c2ccn3nc(CNC[C@@H]4CCC(=O)N4)nc3c2)c1C` [Example 103, (S)—N-(2,2′-dimethyl-3′-(2-((((5-oxopyrrolidin-2-yl)methyl)amino)methyl)-[1,2,4]triazolo[1,5-a]pyridin-7-yl)-[1,1′-biphenyl]-3-yl)-4-(((2-hydroxyethyl)amino)methyl)benzamide], the IC50 lay in the range of 100 to 1000 nM.
With `OCCNCc1ccc(-c2cccc(-c3cccc(-c4ccn5nc(CNCCO)nc5c4)c3Cl)c2Cl)cc1` [Example 104, 2-(((2′,2″-dichloro-3″-(2-(((2-hydroxyethyl)amino)methyl)-[1,2,4]triazolo[1,5-a]pyridin-7-yl)-[1,1′:3′,1″-terphenyl]-4-yl)methyl)amino)ethan-1-ol] the figure was at most 10 nM; with `O=C1CC[C@@H](CNCc2ccc(-c3cccc(-c4cccc(-c5ccn6nc(CNC[C@@H]7CCC(=O)N7)nc6c5)c4Cl)c3Cl)cc2)N1` [Example 105, (S)-5-((((21,2″-dichloro-3″-(2-(((((S)-5-oxopyrrolidin-2-yl)methyl)amino)methyl)-[1,2,4]triazolo[1,5-α]pyridin-7-yl)-[1,1′:3′,1″-terphenyl]-4-yl)methyl)amino)methyl)pyrrolidin-2-one], at most 10 nM.
Take `CC(C)(CO)NCc1ccc(-c2cccc(-c3cccc(-c4ccn5nc(CNC(C)(C)CO)nc5c4)c3Cl)c2Cl)cc1` [Example 106, 2-(((21,2″-dichloro-3″-(2-(((1-hydroxy-2-methylpropan-2-yl)amino)methyl)-[1,2,4]triazolo[1,5-a]pyridin-7-yl)-[1,1′:3′,1″-terphenyl]-4-yl)methyl)amino)-2-methylpropan-1-ol]: the IC50 is at most 10 nM.
For the molecule `CC(=O)NCCNCc1ccc(-c2cccc(-c3cccc(-c4ccn5nc(CNCCNC(C)=O)nc5c4)c3Cl)c2Cl)cc1` [Example 109, N-(2-(((7-(4″-(((2-acetamidoethyl)amino)methyl)-2,2′-dichloro-[1,1′:3′,1″-terphenyl]-3-yl)-[1,2,4]triazolo[1,5-a]pyridin-2-yl)methyl)amino)ethyl)acetamide], the IC50 was at most 10 nM.
Molecule `OCCCNCc1ccc(-c2cccc(-c3cccc(-c4ccn5nc(CNCCCO)nc5c4)c3Cl)c2Cl)cc1` [Example 111, 3-(((2′,2″-dichloro-3″-(2-(((3-hydroxypropyl)amino)methyl)-[1,2,4]triazolo[1,5-a]pyridin-7-yl)-[1,1′:3′,1″-terphenyl]-4-yl)methyl)amino)propan-1-ol] had a half-maximal inhibitory concentration (IC50) of at most 10 nM.
With `CC(C)(CO)NCc1ccc(-c2cccc(-c3cccc(-c4ccn5nc(CNCCO)nc5c4)c3Cl)c2Cl)cc1` [Example 112, 2-(((2′,2″-dichloro-3″-(2-(((2-hydroxyethyl)amino)methyl)-[1,2,4]triazolo[1,5-a]pyridin-7-yl)-[1,1′:3′,1″-terphenyl]-4-yl)methyl)amino)-2-methylpropan-1-ol], the 50% inhibitory concentration (IC50) lay within 10 to 100 nM.
In the case of `OCCNCc1nc2cc(-c3cccc(-c4cccc(-c5ccc(CN6CCC[C@H]6CO)cc5)c4Cl)c3Cl)ccn2n1` [Example 113, (S)-2-(((7-(2,2′-dichloro-4″-((2-(hydroxymethyl)pyrrolidin-1-yl)methyl)-[1,11:31,1″-terphenyl]-3-yl)-[1,2,4]triazolo[1,5-a]pyridin-2-yl)methyl)amino)ethan-1-ol], the 50% inhibitory concentration (IC50) was at most 10 nM.
With `OCCNCc1nc2cc(-c3cccc(-c4cccc(-c5ccc(CN6CCC[C@@H]6CO)cc5)c4Cl)c3Cl)ccn2n1` [Example 114, (R)-2-(((7-(2,2′-dichloro-4″-((2-(hydroxymethyl)pyrrolidin-1-yl)methyl)-[1,11:3′,1″-terphenyl]-3-yl)-[1,2,4]triazolo [1,5-a]pyridin-2-yl)methyl)amino)ethan-1-ol] the figure was at most 10 nM; with `OCCCNCc1ccc(-c2cccc(-c3cccc(-c4ccn5nc(CNCCO)nc5c4)c3Cl)c2Cl)cc1` [Example 115, 3-(((21,2″-dichloro-3″-(2-(((2-hydroxyethyl)amino)methyl)-[1,2,4]triazolo[1,5-a]pyridin-7-yl)-[1,11:31,1″-terphenyl]-4-yl)methyl)amino)propan-1-ol], at most 10 nM; with `CC(C)(CO)NCc1nc2cc(-c3cccc(-c4cccc(-c5ccc(CNCCO)cc5)c4Cl)c3Cl)ccn2n1` [Example 116, 2-(((7-(2,2′-dichloro-4″-(((2-hydroxyethyl)amino)methyl)-[1,1′:31,1″-terphenyl]-3-yl)-[1,2,4]triazolo[1,5-a]pyridin-2-yl)methyl)amino)-2-methylpropan-1-ol], at most 10 nM.

For the origin of these results see patent publication US20260265248A1, “NOVEL PD-L1 INHIBITORS” (AFFIRMA BIOTECH S. L., priority 2023, published 2026).
